Among the data in patent publication US10252997B2, “Monocyclic compound” (Takeda Pharmaceutical Company Limited, priority 2015, dated 2019) are inhibition values, retold here.

Assay [1] has as its target T1, Human ACC1 (Homo sapiens, UniProt Q13085).
T1 construct: His6 (from vector pFAST-BacHTc; purified on Ni-NTA) (N); made in house; host or cells: SF-9 insect cells, recombinant baculovirus BAC-ACC1
The experiment in a line: Measurement of ACC1 inhibitory activity (Malonyl-CoA produced, RapidFire-mass spectrometry). Format: biochemical. Particulars: 10 μM of the test compound; read-out: ACC1 inhibitory rate (%) at 10 μM. As for the experimental part: (1) Cloning of Human ACC1 Gene and Preparation of Recombinant Baculovirus
Human ACC1 gene was cloned by PCR using a human liver cDNA library (Clontech) as a template and Primer 1 and Primer 2 shown below. Primer 1 and Primer 2 were prepared by adding SalI, NotI restriction enzyme recognition sequences based on the information of the base sequence of human ACC1 gene (Genbank Accession U19822).
PCR was performed using Pyrobest DNA polymerase (TAKARA BIO INC.). The obtained PCR product was cloned to pT7 Blue vector (Novagen) and after confirmation of the base sequence, digested with restriction enzymes SalI and […]. The obtained DNA fragment was inserted into pFAST-BacHTc (Invitrogen) digested with restriction enzymes SalI and […] to give expression plasmid ACC1/pFAST-BacHTc.
Using the expression plasmid ACC1/pFAST-BacHTc and BAC-TO-BAC Baculovirus Expression System (Invitrogen), virus stock BAC-ACC1 of recombinant Baculovirus was prepared.
(2) Preparation of ACC1 Protein
SF-9 cells (Invitrogen) were inoculated to a medium (10 L) for insect cells (Sf-900IISFM medium (Invitrogen) containing 5% fetal bovine serum (Trace), 50 mg/L Gentamicin (Wako Pure Chemical Industries, Ltd.) and 0.1% Pluronic F-68 (Invitrogen)) at 1.0×10^6 cells/mL, and cultured with shaking in Wave Bioreactor (GE Healthcare) at 27° C., 20 rpm, rocking angle 100, oxygen concentration 30%.
On day 2 of the culture, recombinant Baculovirus BAC-ACC1 was added, and the cells were cultured for 3 days. The culture medium was centrifuged at 4000×g for 10 min to give virus-infected cells. The cells were washed with phosphate buffered saline (Invitrogen) and centrifuged under the same conditions. The obtained cells were cryopreserved at −80° C.
The cryopreserved cells were thawed in ice, and suspended in 800 mL of 25 mM HEPES buffer (pH 7.5) containing 10% Glycerol, 0.3 M NaCl, 1 mM EDTA, 25 mM Sodium β-Glycerophosphate and 1 mM Sodium Orthovanadate, and supplemented with Complete Protease Inhibitor (Roche). The obtained suspension was homogenized two times in a polytron homogenizer (Kinematica) at 20,000 rpm for 20 sec. The obtained cell disruption solution was clarified by centrifugation at 186,000×g for 60 min, and the supernatant was passed through Ni-NTA Superflow Cartridges (5 mL) (QUIAGEN). Furthermore, it was washed with 25 mM HEPES buffer (pH 7.5) containing 20 mM Imidazole and 0.3 M NaCl, and eluted with 25 mM HEPES buffer (pH 7.5) containing 250 mM Imidazol and 0.3 M NaCl. The eluate was concentrated by Amicon Ultra-15 (Nihon Millipore K.K.) having a fraction molecular weight of 50K. The obtained concentrate was subjected to gel filtration with 50 mM HEPES buffer (pH 7.5) containing 10 mM MgCl2, 2 mM dithiothreitol, 10 mM tripotassium citrate and 0.3 M NaCl by using HiLoad 26/60 Superdex200 prep grade gel filtration column (GE Healthcare) to give ACC1. The obtained ACC1 was cryopreserved at −80° C.
(3) Measurement of ACC1 Inhibitory Activity
ACC1 obtained in the above-mentioned (2) was diluted with an enzyme reaction buffer (50 mM HEPES (pH 7.5), 10 mM MgCl2, 10 mM Tripottasium Citrate, 2 mM Dithiothreitol, 0.001% Fatty acid free BSA) to a concentration of 0.2 μg/ml, and the mixture was added to each well of a 384 well assay plate by 10 μl. A test compound dissolved in dimethyl sulfoxide (DMSO) was diluted with an enzyme reaction buffer, and the resulting solution (5 μl) was added to each well. The mixture was incubated at room temperature for 60 min. Then, a substrate solution (50 mM KHCO3, 200 μM ATP, 200 μM Acetyl-CoA, 5 μl) was added to each well, and the mixture was reacted at room temperature for 30 min. The reaction was quenched by adding a reaction quenching liquid (1.3% formic acid, 0.2 μM Malonyl-^13C3-CoA) by 60 μL each to the obtained reaction mixtures (test compound addition group).
In addition, a reaction was performed in the same manner as above and without adding the test compound (test compound non-addition group). […]

Assay [2] has as its system HCT116 cells. The experiment in a line: Growth inhibitory activity on HCT116 cell (CellTiter-Glo). Format: cell-based. The conditions noted are these: Homo sapiens, HCT-116, 72 h; test compound 1 μM, 3 days; read-out: HCT116 cell proliferation inhibitory rate (%) at 1 μM. As to the method:
The growth inhibitory activity of the compound on HCT116 cell was evaluated by the following method.
HCT116 cells were seeded in a 384 well blackplate at 900 cells/[…]/well, and maintained in an assay medium (RPMI medium (Wako) containing 2% fetal bovine serum, 50 Unit/mL penicillin and […] streptomycin (Invitrogen)). The next day, a test compound dissolved in dimethyl sulfoxide (DMSO) was diluted with the assay medium, and the obtained compound solution was added by […] to each well of a plate containing HCT116 cells, and incubated at 37° C., 5% CO2 (test compound addition group).
A similar reaction was performed without adding a test compound (test compound non-addition group).
Furthermore, a similar reaction was performed under the conditions without adding HCT116 cell and a test compound (control group).
After 3 days, […] of a CellTiter-Glo reagent (Promega KK) was added to the well, and the mixture was stirred for 10 min. Thereafter, the luminescence value of each well was measured by the EnVision™ multilabel counter (Perkin Elmer Inc.).
The HCT116 cell proliferation inhibitory rate (%) of the test compound was determined by the following calculation formula. (1−(luminescence of test compound addition group−luminescence of control group)÷(luminescence of test compound non-addition group−luminescence of control group))×100
The HCT116 cell proliferation inhibitory rates (%) of the test compound (1 μM) are shown below.
Background: ATP-based viability assays read luminescence as a measure of living cells.

With `CC(=O)NC(C)c1ccc(OCc2c(F)cc(Oc3cccc(OCC4CC4)c3)cc2F)cc1` (centres unmarked) [Example 39, N-(1-(4-((4-(3-(cyclopropylmethoxy)phenoxy)-2,6-difluorobenzyl)oxy)phenyl)ethyl)acetamide], the inhibition at 10 µM in assay [1] came to 82%. In addition, in assay [2], the inhibition at 1 µM was 26%.

With `CC(=O)NC(C)CC(=O)c1cnc(-c2ccc(Oc3cccc(OCC4CC4)c3)cc2)o1` (centres unmarked) [Example 64, N-(4-(2-(4-(3-(cyclopropylmethoxy)phenoxy)phenyl)-1,3-oxazol-5-yl)-4-oxobutan-2-yl)acetamide], the inhibition at 10 µM in assay [1] was determined as 99%. In addition, in assay [2], the inhibition at 1 µM is 35%.

As for `CC(=O)NC(C)CCc1cc(-c2ccc(Oc3cccc(OCC4CC4)c3)cc2)no1` (centres unmarked) [Example 46, N-(4-(3-(4-(3-(cyclopropylmethoxy)phenoxy)phenyl)-1,2-oxazol-5-yl)butan-2-yl)acetamide], the inhibition at 10 µM in assay [1] was 95%. Also, in assay [2], the inhibition at 1 µM was found to be 20%.

Take `CC(=O)NC(C)c1ccc(OCc2c(F)cc(Oc3cccc(OCC4CC4)c3)cc2F)nn1` (centres unmarked) [Example 78, N-(1-(6-((4-(3-(cyclopropylmethoxy)phenoxy)-2,6-difluorobenzyl)oxy)pyridazin-3-yl)ethyl)acetamide]: the inhibition at 10 µM in assay [1] is 97%. The inhibition at 1 µM in assay [2] was determined as 12%.
